Experimental data reported in ChEMBL document CHEMBL6127094, “Discovery of non-antiproliferative selective estrogen receptor degraders (SERDs) based on scaffold optimization of elacestrant” (Eur J Med Chem, 2024).
Calls of active or inactive are those of the source. The rule behind the calls is not given here.

Key:
MCF7 [1] = assay: Antiproliferative activity against human MCF7 cells assessed as reduction in cell viability at 5 to 100 uM incubated for 120 hrs by MTT assay relative to fulvestrant/elacestrant; assay type: functional, cell-based; conditions: dose 5-100 µM
[2] = target: T1, Estrogen receptor (Homo sapiens) (UniProt P03372); assay: Induction of selective estrogen receptor degradation (SERD) in human MCF7 cells assessed as decrease in CCND1 mRNA expression level at 1 uM incubated for 24 hrs by RT-qPCR analysis; assay type: cell-based
T1 sequence (whole entry): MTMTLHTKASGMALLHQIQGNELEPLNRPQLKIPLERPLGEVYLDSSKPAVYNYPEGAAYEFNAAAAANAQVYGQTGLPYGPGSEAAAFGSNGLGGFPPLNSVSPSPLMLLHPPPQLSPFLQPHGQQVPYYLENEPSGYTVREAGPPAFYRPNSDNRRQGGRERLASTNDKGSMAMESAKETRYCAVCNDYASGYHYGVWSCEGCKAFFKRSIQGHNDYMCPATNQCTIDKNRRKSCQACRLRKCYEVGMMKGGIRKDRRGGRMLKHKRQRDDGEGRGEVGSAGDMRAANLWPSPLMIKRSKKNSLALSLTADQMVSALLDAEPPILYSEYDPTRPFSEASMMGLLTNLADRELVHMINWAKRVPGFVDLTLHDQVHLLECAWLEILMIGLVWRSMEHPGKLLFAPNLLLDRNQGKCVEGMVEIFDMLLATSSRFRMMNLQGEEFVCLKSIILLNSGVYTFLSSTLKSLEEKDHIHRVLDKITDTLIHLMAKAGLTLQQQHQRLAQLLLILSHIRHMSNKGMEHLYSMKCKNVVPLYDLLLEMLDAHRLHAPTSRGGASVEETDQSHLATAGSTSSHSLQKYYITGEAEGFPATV

MCF7 [3] = assay: Inhibition of ERE signaling in human MCF7 cells transfected with 3X ERE TATA luciferase plasmid assessed as estrogen response element transcription at 10 uM incubated for 24 hrs by luminescence based analysis relative to elacestrant; assay type: functional, cell-based
T47D = assay: Antiproliferative activity against human T47D cells assessed as reduction in cell viability at 1 to 10 uM incubated for 120 hrs by MTT assay; assay type: functional, cell-based; conditions: dose 1-10 µM
[4] = target: T1, Estrogen receptor (Homo sapiens); assay: Induction of selective estrogen receptor degradation (SERD) in human MCF7 cells assessed as decrease in CCND1 mRNA expression level at 1 to 10 uM incubated for 24 hrs in presence of E2 (estrogen) by RT-qPCR analysis; assay type: cell-based; conditions: dose 1-10 µM
[5] = target: T1, Estrogen receptor (Homo sapiens); assay: Induction of selective estrogen receptor degradation (SERD) in human MCF7 cells at 5 uM incubated for 24 hrs by Western blot analysis; assay type: cell-based
[6] = target: T1, Estrogen receptor (Homo sapiens); assay: Induction of selective estrogen receptor degradation (SERD) in human T47D cells at 5 uM incubated for 24 hrs by Western blot analysis; assay type: cell-based
[7] = target: T1, Estrogen receptor (Homo sapiens); assay: Induction of selective estrogen receptor degradation (SERD) in human MCF7 cells assessed as decrease in TFF1 mRNA expression level at 1 to 10 uM incubated for 24 hrs in presence of E2 (estrogen) by RT-qPCR analysis; assay type: cell-based; conditions: dose 1-10 µM
[8] = target: T1, Estrogen receptor (Homo sapiens); assay: Induction of selective estrogen receptor degradation (SERD) in human MCF7 cells assessed as decrease in TFF1 mRNA expression level at 1 uM incubated for 24 hrs by RT-qPCR analysis; assay type: cell-based
[9] = target: T1, Estrogen receptor (Homo sapiens); assay: Induction of selective estrogen receptor degradation (SERD) in human MCF7 cells assessed as decrease in TFF1 mRNA expression level incubated for 24 hrs in presence of E2 (estrogen) by RT-qPCR analysis; assay type: cell-based
[10] = target: T1, Estrogen receptor (Homo sapiens); assay: Induction of selective estrogen receptor degradation (SERD) in human MCF7 cells assessed as decrease in GREB1 mRNA expression level incubated for 24 hrs in presence of E2 (estrogen) by RT-qPCR analysis; assay type: cell-based

Row | Compound | Activity (MCF7 [1]) | further results
1 | CCN(Cc1ccc(OCCN2CCCC2)cc1)c1cc(C)ccc1N1CCc2cc(O)ccc2C1 | inactive | 
2 | CCN(Cc1ccc(OCCN2CCCCCC2)cc1)c1ccccc1N1CCc2cc(O)ccc2C1 | inactive | 
3 | CCN(C(=O)c1ccc(OCCN2CCCC2)cc1)c1cc(F)ccc1N1CCc2cc(O)ccc2C1 | inactive | 
4 | CCN(C(=O)c1ccc(OCCN2CCCC2)cc1)c1cc(C)ccc1N1CCc2cc(O)ccc2C1 | inactive | 
5 | CCN(C(=O)c1ccc(OCCN2CCCC2)cc1)c1ccccc1N1CCc2cc(O)ccc2C1 | inactive | 
6 | CCN(Cc1ccc(/C=C/C(=O)O)cc1)c1cc(C(F)(F)F)ccc1N1CCc2cc(O)ccc2C1 | inactive | Activity [2]: Active; inhibition (MCF7 [3]): inactive; Activity (T47D): inactive; Activity [4]: Active; Activity [5]: Active; Activity [6]: Active; Activity [7]: Active; Activity [8]: Active
7 | CCN(C(=O)c1ccc(OCCN2CCCC2)cc1)c1cc(C(F)(F)F)ccc1N1CCc2cc(O)ccc2C1 | inactive | 
8 | CCN(Cc1ccc(OCCN2CCCC2)cc1)c1ccccc1N1CCc2cc(O)ccc2C1 | inactive | 
9 | CCN(Cc1ccc(/C=C/C(=O)O)cc1)c1cc(F)ccc1N1CCc2cc(O)ccc2C1 | inactive | 
10 | CCN(Cc1ccc(OCCN2CCCC2)cc1)c1cc(F)ccc1N1CCc2cc(O)ccc2C1 | inactive | 
11 | CCN(Cc1ccc(OCCN2CCCCCC2)cc1)c1cc(C(F)(F)F)ccc1N1CCc2cc(O)ccc2C1 | inactive | 
12 | CCN(Cc1ccc(OCCN2CCCC2)cc1)c1cc(C(F)(F)F)ccc1N1CCc2cc(O)ccc2C1 | inactive | 
13 | CCN(Cc1ccc(/C=C/C(=O)O)cc1)c1ccccc1N1CCc2cc(O)ccc2C1 | inactive | 
14 | CCN(Cc1ccc(OCCN2CCCCCC2)cc1)c1cc(C)ccc1N1CCc2cc(O)ccc2C1 | inactive | 
15 | CCNCCc1ccc(CN(CC)c2cc(OC)ccc2[C@@H]2CCc3cc(O)ccc3C2)cc1 |  | Activity [9]: Active; Activity [10]: Active
16 | CCN(Cc1ccc(/C=C/C(=O)O)cc1)c1cc(C)ccc1N1CCc2cc(O)ccc2C1 | inactive | 
17 | CCN(Cc1ccc(OCCN2CCCCCC2)cc1)c1cc(F)ccc1N1CCc2cc(O)ccc2C1 | inactive | 
